System: Human Mammary Epithelial (HME) 50 HT cell line
Assay: Multiple nuclear divisions in cultured HME 50 HT cells
Format: cell-based
Details: HME 50 HT cells in serum-free medium; FIGS. 3 and 4
Procedure: Such a culture medium was treated with the composition comprising the compound of formula II obtained in the Example 1 and the compound of formula III obtained in the Examples 2 to 5, respectively.
And, it was found from the photomicrographs that the cells appeared very healthy and unstressed.

Q: How did the “multiple nuclear divisions in the cell (stained-cell image)” value turn out when `CCC1(N)C(=O)COC=C1C` (centres unmarked) [compound of formula III] was run?
A: multiple nuclear divisions occurred in the cell

Q: `C=CC1(N)C(=O)COC=C1C` (centres unmarked) [compound of formula II] was tested. Which “multiple nuclear divisions in the cell (stained-cell image)” value did it give?
A: multiple nuclear divisions occurred in the cell

Source: patent publication US20130030048A1, “COMPOSITION FOR INDUCING MULTIPLE NUCLEAR DIVISION OF CELLS” (priority 2010, published 2013)
